Source: patent US11612576B2 (Thiogenesis Therapeutics, Inc., priority 2017, dated 2023)
Where a name gives a salt, the structure may show the parent alone. Read-outs that look alike come from different tables or passages of the source.

Legend:
[1] = in vivo; cited from earlier work
[2] = Physical characteristics of TTI-0102 salt forms; format: physicochemical; details: compared with free base
Experimental: TTI-0102 was prepared as in Example 14. The crude product was obtained by evaporation of water and DMF. The residue was suspended in ethyl acetate/water; precipitated dicyclohexylurea (DCU) was filtered off. The solution was evaporated and suspended in methanol. The precipitate (unreacted pantothenic acid) was filtered off. The filtrate was concentrated and then dissolved in a small volume of methanol. After addition of dichloromethane the cystamine hydrochloride precipitated and was filtered off. After evaporation of solvent, the residue was crystallized from methanol:acetone (1:10) to provide TTI-1 hydrochloride.
The tartrate salt was formed and crystallized from a MeOH:DCM mixture. The solid form was filtered off (precipitate) and filtrate was evaporated.

[3] = Cysteamine and pantetheine in rat gastrointestinal contents six hours after dosing (Example 13); format: in vivo, Sprague-Dawley rats
Experimental: In addition to the plasma samples, gastrointestinal contents (stomach contents, proximal small intestinal contents, distal small intestinal contents and cecum/colon contents) were obtained from rats at the end of the study (6 hours after dosing) and snap frozen. Tissue levels of cysteamine and pantetheine were measured in the gastrointestinal contents. The protocol for tissue analysis entailed (i) smashing frozen tissue fragments over dry ice to obtain small pieces; (ii) weighing several frozen tissue pieces (˜[…]) into a tared 1.5 ml microcentrifuge tube with two metal ball bearings and immediately storing on dry ice; (iii) homogenizing tissue fragments cryogenically using a Retsch Cryomill at 250 hertz for 5 minutes; (iv) thawing each sample on ice, adding two volumes of water (w:v., i.e. 2 microliters of water were added for each milligram of homogenized tissue) to make an approximately 1:3 dilution; (v) removing 20 ul of the resuspended tissue powder to a new tube, adding 2.2 ul of 50 mM TCEP (5 mM final concentration) and incubating for 45 minutes at 37 degrees C. (TCEP treated samples), or adding 2.2 ul of deioinized water in place of TCEP (no TCEP samples); (vi) adding 3.5 volumes of acetonitrile:0.1% formic acid, vortex mixing for 15 seconds, and then pelleting precipitated protein by centrifugation for 10 minutes at 14,000 rpm in a microcentrifuge at 4 degrees C.; (vii) transferring 25 ul of supernatant to a new tube containing 75 ul of ACN/0.1% FA; (vii) injecting samples on the LC-MS apparatus described above, using the same column and run conditions as for plasma samples.

[4] = Dissolution of the dose in saline before gavage; format: physicochemical; details: 120 mg/kg dose (311.68 mg/kg compound 2) in 3 milliliters of saline
[5] = system: mouse models of HD; details: cited from earlier work
[6] = target: T1, tissue transglutaminase (transglutaminase 2, TG2) (Homo sapiens, UniProt P21980); details: cited from earlier work
T1 sequence (P21980 1-687): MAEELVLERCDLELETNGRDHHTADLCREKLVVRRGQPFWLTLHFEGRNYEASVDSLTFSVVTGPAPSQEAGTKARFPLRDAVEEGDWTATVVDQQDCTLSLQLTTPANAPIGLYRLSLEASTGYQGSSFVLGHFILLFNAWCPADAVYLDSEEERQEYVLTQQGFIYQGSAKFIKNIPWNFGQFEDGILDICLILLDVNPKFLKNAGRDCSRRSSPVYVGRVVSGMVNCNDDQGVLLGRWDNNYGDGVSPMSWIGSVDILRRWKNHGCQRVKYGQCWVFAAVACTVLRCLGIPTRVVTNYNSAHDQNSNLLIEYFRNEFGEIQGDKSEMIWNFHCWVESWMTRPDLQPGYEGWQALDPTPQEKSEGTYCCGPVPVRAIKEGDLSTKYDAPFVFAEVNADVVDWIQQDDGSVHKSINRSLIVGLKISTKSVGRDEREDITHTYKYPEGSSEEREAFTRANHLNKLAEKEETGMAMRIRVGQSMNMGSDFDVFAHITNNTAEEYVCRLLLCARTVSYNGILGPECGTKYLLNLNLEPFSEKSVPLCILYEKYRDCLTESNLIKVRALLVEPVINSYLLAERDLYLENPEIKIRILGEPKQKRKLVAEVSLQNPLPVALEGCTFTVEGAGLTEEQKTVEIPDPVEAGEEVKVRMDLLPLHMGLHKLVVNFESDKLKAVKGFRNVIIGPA

[7] = rat, in vivo
Experimental: Thus in the discussion below, and in the accompanying figures, a “30 mg/kg” dose of TTI-0102 means 68.73 mg/kg was administered, a “60 mg/kg” dose of TTI-0102 means 137.46 mg/kg was administered and a “100 mg/kg” dose of TTI-0602 (aka compound 2) means 229.1 mg/kg was administered.
Each of the four compounds was administered via gavage to three male Sprague-Dawley rats weighing approximately 300 grams. All doses were dissolved in 2.5 milliliters of saline.
Blood samples were obtained from rats immediately after dosing (within one minute) and 10, 20, 30, 45, 60, 90, 120, 180, 240, 300 and 360 minutes after dosing via carotid artery catheters surgically implanted before the PK study. Plasma was obtained from blood by centrifugation, snap frozen and stored at −80 degrees Celsius. Several days later plasma samples were thawed on ice and each aliquoted to two paired tubes (20 μL per tube), one of which was processed for measurement of thiols (after quantitative disulfide bond reduction), while the other was processed for analysis of disulfides.
Briefly, 2.2 ul of freshly prepared 50 mM TCEP stock solution was added to 20 ul of plasma and the sample incubated at 37 degrees C. for 45 minutes. The volume of plasma in the paired (non-reduced) sample was adjusted by adding 2.2 ul of deionized water.
After the TCEP reduction step all plasma samples were deproteinized by adding 3.5 volumes of ice cold acetonitrile (ACN)/1% formic acid (FA) solution containing internal standards (77 μL of ACN/1% FA solution was added to 22.2 μL of plasma).
The denatured protein was pelleted by centrifugation at 14,000 rpm for 10 minutes at 4 degrees C. in a microcentrifuge. The supernatant (25 ul) was removed to a new tube, mixed with 75 ul of ACN/0.1% FA solution and injected directly into a 150×2 mm Atlantis hydrophilic interaction liquid chromatography (HILIC) column (Waters; Milford, Mass.). Metabolites were analyzed using a Nexera X2 U-HPLC (Shimadzu) and a Q-Exactive hybrid quadrupole Orbitrap mass spectrometer (Thermo Fisher Scientific). […]

[8] = Rat pharmacokinetic study of compound 2: plasma cysteamine after gavage; format: in vivo, Sprague-Dawley rats; details: cysteamine HCl, 30 mg/kg cysteamine base
Experimental: The compound 2 doses were prepared for 250 gram rats, but the actual masses of the rats at the time of drug administration varied from 267-300 grams, so the actual doses, normalized to body weight, ranged from 26.1-27.1 mg/kg in group 1, 51.7-56.2 mg/kg in group 2 and 108.3-109.5 mg/kg in group 3. Nonetheless, for convenience those doses are referred to as 30, 60 and 120 mg/kg.
Plasma was obtained from blood by centrifugation and snap frozen.

[9] = cited from earlier work
[10] = system: xenograft models; details: cited from earlier work
[11] = system: matrix metalloproteinases (MMPs); details: high concentrations (e.g. 25 millimolar); cited from earlier work
[12] = system: kidney fibrosis; details: ureteral stenosis and renal ischemia/reperfusion injury; cited from earlier work
[13] = system: erythrocytes from sickle cell anemia patients; details: cited from earlier work
[14] = system: Pseudomonas aeruginosa; details: cited from earlier work
[15] = system: Plasmodium Falciparum; details: in vitro and in mouse models of malaria; cited from earlier work
[16] = system: CYP1A2, CYP2B6, CYP2C8, CYP2C9, CYP2C19, CYP2D6, CYP2E1, CYP2A6, CYP3A4; details: in vitro; cited from earlier work
[17] = system: CYP1A2, CYP2A6, CYP2B6, CYP2C8, CYP2C9, CYP2C19, CYP2D6, CYP2E1 and CYP3A4; details: in vitro; cited from earlier work
[18] = system: P-gp, OCT2, BCRP, OATP1B1, OATP1B3, OAT1, OAT3, OCT1; details: in vitro; cited from earlier work

Which “half life in blood” value [1] does the source give for `CC(C)(COP(=O)(O)O)[C@@H](O)C(=O)NCCC(=O)NCCS` [4-phosphopantetheine] here?
Its value is “over 3 hours”.

For `CC(C)(CO)[C@@H](O)C(=O)NCCC(=O)NCCSSCCN` [acetate salt of TTI-0102], which “stability of salt form” value [2] is on record?
The value was “more stable than the free base”.

Which results are given for `CC(C)(CO)[C@@H](O)C(=O)NCCC(=O)NCCSSCCN` [compound 1, cysteamine-(R)-pantetheine disulfide]?
fraction of small intestinal pantetheine in the form of the thiol ([3]; compound 1 100 mg/kg, no TCEP vs TCEP samples): about half; pantetheine at all levels of the gastrointestinal tract (stomach, proximal and distal small intestine, colon) ([3]; compound 1 100 mg/kg, six hours after dosing): high levels of pantetheine are present; colon contents (TCEP reduced) ([3]; compound 1, six hours after dosing): high concentrations of both cysteamine and pantetheine

With `CC(=O)NCCSSCCNC(=O)CCNC(=O)[C@H](O)C(C)(C)CO` [compound 2, N-acetylcysteamine-(R)-pantetheine disulfide] as the compound, how does the “dissolution of dose in saline” value [4] read?
The value was “did not completely dissolve in saline”.

Which “effects in several mouse models of Huntington's disease” value ([5]; mouse, in vivo) does the source give for `NCCSSCCN` [cystamine] here?
The value was “improves motor function and extends life-span”.

And the “inhibition of tissue transglutaminase (TG2)” value [6]?
The value was “TG2 inhibitor”.

Which results are given for `Cl.NCCS` [cysteamine HCl, cysteamine hydrochloride]?
time in which half of the dose is absorbed [7]: one; time of peak observed concentration after gavage [7]: 10 min; Cmax ([7]; 30 mg/kg): ~55.3 µM; peak plasma cysteamine concentration [8]: over 200 uM; time by which cysteamine concentration declined to less than half maximal [8]: ≤ 90 min

With `NCCS` [cysteamine bitartrate] as the compound, how does the Cmax ([9]; read-out: C max of cysteamine, cysteamine bitartrate 20 mg/kg cysteamine base equivalent) read?
Its Cmax is 81.9 µM.

Which results are given for `NCCS.O=C(O)C(O)C(O)C(=O)O` (stereo not shown) [cysteamine bitartrate]?
fraction of cysteamine eliminated by 150 minutes (inferred) ([9]; cysteamine bitartrate 20 mg/kg): over 95%; time by which cysteamine levels returned to baseline ([9]; cysteamine bitartrate 20 mg/kg): ≤ 2 h; tissue half life of cysteamine ([9]; cysteamine bitartrate 20 mg/kg): 25 to 29 min

Which survival of mice [10] does the source give for `NCCS` [cysteamine, 2-aminoethanethiol] here?
Its survival of mice is “prolonged survival of mice in a dose-dependent manner without toxicity”.

And the “beneficial effects in R6/2 HD mouse model” value ([5]; R6/2 mouse model)?
Its value is “amelioration of weight loss and motor abnormalities, and prolongation of survival”.

And the “inhibition of matrix metalloproteinases” value [11]?
The value was “inhibits”.

What about the “efficacy in mouse models of kidney fibrosis” value [12] of the same compound?
Its value is “effective”.

What about the “sickling under hypoxic conditions” value [13] of the same compound?
The value was “marked inhibition of sickling”.

What about the “activity against Pseudomonas aeruginosa and other CF pathogens” value [14] of the same compound?
Its value is “bactericidal”.

What about the “proliferation of Plasmodium Falciparum” value [15] of the same compound?
Its value is “inhibits proliferation”.

And the “half life in blood” value [1]?
The value was “about 25 minutes”.

What about the “metabolism by CYP1A2, CYP2B6, CYP2C8, CYP2C9, CYP2C19, CYP2D6 and CYP2E1” value [16] of the same compound?
The value was “likely to be metabolized by multiple CYP enzymes”.

What about the “metabolism by CYP2A6 or CYP3A4” value [16] of the same compound?
Its value is “not by CYP2A6 or CYP3A4”.

And the “inhibition of CYP1A2, CYP2A6, CYP2B6, CYP2C8, CYP2C9, CYP2C19, CYP2D6, CYP2E1 and CYP3A4” value [17]?
The value was “not an inhibitor”.

And the “inhibition of tissue transglutaminase (TG2)” value [6]?
Its value is “inhibits”.

And the “substrate of BCRP, OATP1B1, OATP1B3, OAT1, OAT3 and OCT1” value [18]?
Its value is “not a substrate”.

And the “substrate of P-gp and OCT2” value [18]?
The value was “is a substrate”.
